Laboratory results reported in patent EP1976513B1 (priority 2006, dated 2007).
Like-named read-outs stand apart in the source and are kept apart here.

Tests used:
[1] = target: T1, DA Transporter (DAT) Sites in Mouse Brain (Mus musculus, UniProt Q61327); experiment: Ex vivo [3H] WIN 35428 binding after oral dosing; design: species or system C57BL/6 mice; settings: for % Transporter Occupancy, DAT: 60 minutes after treatment, vs vehicle; for Mean Specific Binding (dpm) ± S.E.M., DAT: mice sacrificed 60 minutes after treatment, striatum
T1 construct: Striatum was used to determine occupancy of DA transporter sites; from tissue; host or cells: C57BL/6 mouse striatum homogenate
T1 sequence (Q61327 whole entry): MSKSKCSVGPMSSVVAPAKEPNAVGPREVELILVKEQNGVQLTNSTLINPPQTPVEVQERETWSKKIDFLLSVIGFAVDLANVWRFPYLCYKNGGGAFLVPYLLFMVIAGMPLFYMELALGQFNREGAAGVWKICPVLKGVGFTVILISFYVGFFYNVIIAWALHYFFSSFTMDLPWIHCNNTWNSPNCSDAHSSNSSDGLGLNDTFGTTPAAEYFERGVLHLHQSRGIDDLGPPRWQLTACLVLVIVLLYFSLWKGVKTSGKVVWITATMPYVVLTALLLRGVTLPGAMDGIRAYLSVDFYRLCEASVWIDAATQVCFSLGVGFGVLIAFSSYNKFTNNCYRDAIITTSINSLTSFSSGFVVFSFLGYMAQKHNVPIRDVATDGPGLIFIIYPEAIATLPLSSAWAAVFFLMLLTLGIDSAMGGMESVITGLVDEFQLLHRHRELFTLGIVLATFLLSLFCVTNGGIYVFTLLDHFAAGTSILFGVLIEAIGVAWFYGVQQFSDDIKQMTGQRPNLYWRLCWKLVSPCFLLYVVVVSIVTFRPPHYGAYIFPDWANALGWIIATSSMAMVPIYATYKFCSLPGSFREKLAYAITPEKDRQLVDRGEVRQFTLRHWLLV

[2] = target: T2, serotonin transporter (Rattus norvegicus, UniProt P31652); experiment: biochemical; settings: rat synaptosomes, serotonin transporter (SERT)
T2 construct: synaptosomes isolated in a 0.32M sucrose buffer from a male Wistar rat cortex; from tissue; host or cells: male Wistar rat cortex synaptosomes
T2 sequence (P31652 whole entry): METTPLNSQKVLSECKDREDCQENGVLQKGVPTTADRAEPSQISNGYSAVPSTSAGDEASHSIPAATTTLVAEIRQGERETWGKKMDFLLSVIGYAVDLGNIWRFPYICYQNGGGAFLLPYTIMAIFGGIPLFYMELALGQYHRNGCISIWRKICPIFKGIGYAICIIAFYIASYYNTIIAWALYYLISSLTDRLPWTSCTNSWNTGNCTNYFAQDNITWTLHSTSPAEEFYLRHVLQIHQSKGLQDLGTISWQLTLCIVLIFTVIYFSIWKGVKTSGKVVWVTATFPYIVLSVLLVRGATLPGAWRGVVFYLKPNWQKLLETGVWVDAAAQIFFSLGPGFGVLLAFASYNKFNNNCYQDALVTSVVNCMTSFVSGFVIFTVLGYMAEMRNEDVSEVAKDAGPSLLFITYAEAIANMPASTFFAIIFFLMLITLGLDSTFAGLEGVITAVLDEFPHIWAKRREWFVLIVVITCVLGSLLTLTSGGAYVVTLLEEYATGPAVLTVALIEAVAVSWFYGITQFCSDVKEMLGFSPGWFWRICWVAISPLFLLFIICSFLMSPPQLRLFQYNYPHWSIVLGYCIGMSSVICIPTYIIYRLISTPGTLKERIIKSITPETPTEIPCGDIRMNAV

[3] = target: T3, 5-HT Transporter (SERT) Sites in Mouse Brain (Mus musculus, UniProt Q60857); experiment: Ex vivo [3H] citalopram binding after oral dosing; design: species or system C57BL/6 mice; settings: for % Transporter Occupancy, SERT: 60 minutes after treatment, vs vehicle; for Mean Specific Binding (dpm) ± S.E.M., SERT: mice sacrificed 60 minutes after treatment, cortex
T3 construct: Whole brains were removed and cortex and striata dissected out; from tissue; host or cells: C57BL/6 mouse frontal cortex homogenate
T3 sequence (Q60857 whole entry): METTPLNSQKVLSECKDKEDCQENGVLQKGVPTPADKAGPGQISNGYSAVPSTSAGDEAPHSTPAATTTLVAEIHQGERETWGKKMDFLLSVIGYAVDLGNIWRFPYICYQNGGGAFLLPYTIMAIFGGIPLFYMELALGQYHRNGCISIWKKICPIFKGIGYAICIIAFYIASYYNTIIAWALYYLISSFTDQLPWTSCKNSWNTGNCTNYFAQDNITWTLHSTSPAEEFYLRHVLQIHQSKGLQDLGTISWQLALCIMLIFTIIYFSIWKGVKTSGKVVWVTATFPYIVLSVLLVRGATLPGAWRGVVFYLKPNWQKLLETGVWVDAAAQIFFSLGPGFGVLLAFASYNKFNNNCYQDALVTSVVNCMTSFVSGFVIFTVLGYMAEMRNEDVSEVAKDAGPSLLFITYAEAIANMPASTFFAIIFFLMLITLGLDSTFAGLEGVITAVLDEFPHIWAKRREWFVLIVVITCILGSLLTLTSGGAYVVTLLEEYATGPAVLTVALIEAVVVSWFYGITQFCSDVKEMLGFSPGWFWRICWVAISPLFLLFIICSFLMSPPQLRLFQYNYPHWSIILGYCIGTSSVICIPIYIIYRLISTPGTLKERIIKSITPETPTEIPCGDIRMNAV

[4] = target: T4, dopamine transporter (Rattus norvegicus, UniProt P23977); experiment: biochemical; settings: rat synaptosomes, dopamine transporter (DAT); read-out: Rat IC50 (nM) rDAT
T4 construct: synaptosomes isolated in a 0.32 M sucrose buffer from a male Wistar rat striatum; from tissue; host or cells: male Wistar rat striatum synaptosomes
T4 sequence (P23977 whole entry): as the sequence (Q61327 whole entry) above, with P21S, V57A, S194A, R600H, V619L counted along it

[5] = target: human norepinephrine reuptake transporter (Homo sapiens, UniProt P23975); experiment: cell-based; settings: recombinant human norepinephrine transporter (NET); read-out: Human IC50 (nM) hNET
human norepinephrine reuptake transporter, sequence (P23975 whole entry): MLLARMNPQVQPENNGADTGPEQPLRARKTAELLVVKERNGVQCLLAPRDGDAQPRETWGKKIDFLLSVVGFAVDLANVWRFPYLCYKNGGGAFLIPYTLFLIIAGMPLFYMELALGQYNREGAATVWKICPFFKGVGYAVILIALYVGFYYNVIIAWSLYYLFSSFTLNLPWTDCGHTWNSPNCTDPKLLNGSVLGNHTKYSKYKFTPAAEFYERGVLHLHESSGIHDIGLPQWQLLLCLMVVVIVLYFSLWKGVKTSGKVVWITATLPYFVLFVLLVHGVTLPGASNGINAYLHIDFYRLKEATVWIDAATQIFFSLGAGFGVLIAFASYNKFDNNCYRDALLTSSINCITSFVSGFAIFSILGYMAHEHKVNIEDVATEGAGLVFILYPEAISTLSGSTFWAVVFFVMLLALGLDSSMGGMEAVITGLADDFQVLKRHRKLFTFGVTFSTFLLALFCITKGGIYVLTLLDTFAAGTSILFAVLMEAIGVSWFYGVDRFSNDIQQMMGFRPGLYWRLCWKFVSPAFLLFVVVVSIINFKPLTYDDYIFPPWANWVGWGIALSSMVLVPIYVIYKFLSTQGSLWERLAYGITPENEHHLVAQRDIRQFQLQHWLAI

[6] = target: T5, human dopamine reuptake transporter (Homo sapiens, UniProt Q01959); experiment: cell-based; settings: recombinant human dopamine transporter (DAT); read-out: Human IC50 (nM) hDAT
T5 construct: expressed in transfected cells; host or cells: CHO-K1 or HEK293
T5 sequence (Q01959 whole entry): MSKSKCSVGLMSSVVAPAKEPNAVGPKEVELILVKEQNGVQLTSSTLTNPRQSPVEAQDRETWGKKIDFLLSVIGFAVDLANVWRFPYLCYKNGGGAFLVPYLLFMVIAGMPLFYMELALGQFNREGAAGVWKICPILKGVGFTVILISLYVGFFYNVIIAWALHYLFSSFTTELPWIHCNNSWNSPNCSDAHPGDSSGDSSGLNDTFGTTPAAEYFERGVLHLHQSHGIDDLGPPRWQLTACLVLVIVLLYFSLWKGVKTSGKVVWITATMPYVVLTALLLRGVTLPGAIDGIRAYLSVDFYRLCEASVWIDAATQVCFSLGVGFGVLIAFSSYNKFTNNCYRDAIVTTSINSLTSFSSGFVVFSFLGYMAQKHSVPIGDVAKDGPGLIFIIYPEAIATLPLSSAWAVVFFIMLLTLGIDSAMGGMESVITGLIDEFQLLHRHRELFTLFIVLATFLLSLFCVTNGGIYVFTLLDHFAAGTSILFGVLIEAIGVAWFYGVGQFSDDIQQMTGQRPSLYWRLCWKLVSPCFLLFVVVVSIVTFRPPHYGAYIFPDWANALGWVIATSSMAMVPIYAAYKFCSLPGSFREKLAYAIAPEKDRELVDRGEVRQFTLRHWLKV

[7] = target: human serotonin reuptake transporter (Homo sapiens, UniProt P31645); experiment: cell-based; settings: Human IC50 (nM) hSERT, recombinant human serotonin transporter (SERT)
human serotonin reuptake transporter, sequence (P31645 whole entry): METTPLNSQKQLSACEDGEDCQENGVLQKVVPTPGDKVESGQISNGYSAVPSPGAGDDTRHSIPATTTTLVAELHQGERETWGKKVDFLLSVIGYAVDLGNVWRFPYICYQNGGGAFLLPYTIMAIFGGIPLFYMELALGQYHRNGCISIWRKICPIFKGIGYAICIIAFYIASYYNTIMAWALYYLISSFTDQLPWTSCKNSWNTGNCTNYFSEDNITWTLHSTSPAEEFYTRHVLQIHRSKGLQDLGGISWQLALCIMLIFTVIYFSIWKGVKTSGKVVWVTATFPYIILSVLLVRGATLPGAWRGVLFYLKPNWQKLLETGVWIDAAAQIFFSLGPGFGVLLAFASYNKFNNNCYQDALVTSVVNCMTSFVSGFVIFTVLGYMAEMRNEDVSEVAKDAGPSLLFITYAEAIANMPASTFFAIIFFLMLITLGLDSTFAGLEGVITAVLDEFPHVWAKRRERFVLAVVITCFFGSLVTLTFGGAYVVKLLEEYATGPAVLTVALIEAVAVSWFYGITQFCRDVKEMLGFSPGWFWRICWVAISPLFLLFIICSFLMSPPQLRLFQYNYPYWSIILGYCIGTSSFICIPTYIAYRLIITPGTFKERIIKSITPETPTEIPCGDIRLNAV

For CNC(C)C1(c2ccc3ccccc3c2)CCCCC1 (single isomer, unassigned) [58 E1, N-methyl-1-(1-(naphthalen-2-yl)cyclohexyl)ethanamine], the “% Transporter Occupancy, DAT” value ([1]; 1 mg/kg) was 7%, the “Mean Specific Binding (dpm) ± S.E.M., DAT” value (shortened to “Mean Specific Binding … DAT”) ([1]; 1 mg/kg) was 15732 ± 1360 dpm and the “% Transporter Occupancy, DAT” value ([1]; 3 mg/kg) was 11%. For the same compound, the “Mean Specific Binding … DAT” value ([1]; 3 mg/kg) was 14938 ± 2613 dpm, the “% Transporter Occupancy, DAT” value ([1]; 10 mg/kg) was -2% and the “Mean Specific Binding … DAT” value ([1]; 10 mg/kg) was 17215 ± 2151 dpm. For the same compound, the “% Transporter Occupancy, DAT” value ([1]; 30 mg/kg) was 24%, the “Mean Specific Binding … DAT” value ([1]; 30 mg/kg) was 12876 ± 2152 dpm and the IC50 ([2]; Rat IC50 (nM) rSERT) was 9.5 nM. The “% Transporter Occupancy, SERT” value ([3]; 1 mg/kg) was 5%, the “Mean Specific Binding (dpm) ± S.E.M., SERT” value (from here on “Mean Specific Binding … SERT”) ([3]; 1 mg/kg) was 3245 ± 107 dpm and the “% Transporter Occupancy, SERT” value ([3]; 3 mg/kg) was 11%. The “Mean Specific Binding … SERT” value ([3]; 3 mg/kg) was 3021 ± 182 dpm, the “% Transporter Occupancy, SERT” value ([3]; 10 mg/kg) was 47% and the “Mean Specific Binding … SERT” value ([3]; 10 mg/kg) was 1799 ± 115 dpm. For the same compound, the “% Transporter Occupancy, SERT” value ([3]; 30 mg/kg) was 86% and the “Mean Specific Binding … SERT” value ([3]; 30 mg/kg) was 469 ±43 dpm.

With CNC(C)C1(c2ccc3ccccc3c2)CCCCC1 (single isomer, unassigned) [58 E2, N-methyl-1-(1-(naphthalen-2-yl)cyclohexyl)ethanamine] the IC50 ([2]; Rat IC50 (nM) rSERT) was 100 nM.

NCC1(c2cccc3ccccc23)CCCCC1 [Compound 12, (1-(naphthalen-1-yl)cyclohexyl)methanamine] gave an IC50 ([2]; read-out: Rat IC50 (nM) rSERT) of 1100 nM and an IC50 [4] of 1900 nM.

NCC1(c2ccc(OC(F)(F)F)cc2)CCCCC1 [Compound 15, (1-(4-(trifluoromethoxy)phenyl)cyclohexyl)methanamine] gave an IC50 [5] of over 10000 nM, an IC50 [6] of over 10000 nM and an IC50 [7] of 1400 nM.
